Assays:
monkeys = conditions: NR2A antagonist; cited from earlier work
patients = conditions: Tsai and Coyle '875; low baseline levels; cited from earlier work
Sprague-Dewley rats = assay: Effects of chronic haloperidol treatment on motor activity; type: in vivo, rat
Protocol: Rats were weighed biweekly throughout the study. Room temperature was maintained at 22±2° C.

[1] = system: neuroleptic sensitized monkeys; conditions: cited from earlier work

In the case of N[C@H](CC(=O)CP(=O)(O)O)C(=O)O [MDL 100,453], the “Effect on symptoms of dyskinesia” value (monkeys) is listed as “worsening symptoms of dyskinesia”.
For CNCC(=O)O [N-methylglycine], the “Changes in SAS or AIMS scores” value (patients) is listed as “no significant changes”.
In the case of CCCCCCCCCC(=O)OC1(c2ccc(Cl)cc2)CCN(CCCC(=O)c2ccc(F)cc2)CC1 [haloperidol, haloperidol decanoate], the “Number of VCM episodes relative to rats that had received placebo” value (Sprague-Dewley rats; haloperidol decanoate i.m. every four weeks, 24 weeks, p<0.001) was “approximately 4 fold”, the “Mean time spent in immobility” value (Sprague-Dewley rats; haloperidol for 24 weeks, 5 minute observation interval, placebo 53.0±12.7) was 103.2 ± 7.8 s and the “Number of rearing episodes vs placebo” value (Sprague-Dewley rats; haloperidol for 24 weeks, p<0.0001) was “significantly lower”. For the same compound, the “Number of grooming episodes vs controls” value (Sprague-Dewley rats; haloperidol for 24 weeks, p<0.17) was “did not differ”.
In the case of CNC1(c2ccccc2Cl)CCCCC1=O (stereo not shown) [ketamine], the “Motor effects of administration” value [1] is listed as “induces bradykinesia, dystonia and salivation”.

— patent US9029410B2, “Pharmaceutical compositions for the treatment of movement disorders” (Sarah Herzog Memorial Hospital Ezrath Nashim Association, priority 2003, dated 2015)
